Test results taken from ChEMBL document CHEMBL4184241, “2-Formyl-komarovicine promotes adiponectin production in human mesenchymal stem cells through PPARγ partial agonism” (Bioorg Med Chem, 2018).
Blank lines part the entries; values can stand above or below the molecule they belong to. Calls of active or inactive are those of the source. No cut-off for these calls is given here.

Legend:
[1] = organism: Homo sapiens; assay: Induction of adipogenesis in human bone marrow-derived mesenchymal stem cells assessed as increase in adiponectin production at 1 uM measured on day 5 in presence of IDX by ELISA; format: functional
[2] = biological target: T1, Peroxisome proliferator-activated receptor delta (Homo sapiens) (UniProt Q03181); assay: Displacement of fluormone Pan-PPAR Green from human GST-tagged PPARdelta-LBD at 10 uM by TR-FRET assay
T1 sequence (whole entry): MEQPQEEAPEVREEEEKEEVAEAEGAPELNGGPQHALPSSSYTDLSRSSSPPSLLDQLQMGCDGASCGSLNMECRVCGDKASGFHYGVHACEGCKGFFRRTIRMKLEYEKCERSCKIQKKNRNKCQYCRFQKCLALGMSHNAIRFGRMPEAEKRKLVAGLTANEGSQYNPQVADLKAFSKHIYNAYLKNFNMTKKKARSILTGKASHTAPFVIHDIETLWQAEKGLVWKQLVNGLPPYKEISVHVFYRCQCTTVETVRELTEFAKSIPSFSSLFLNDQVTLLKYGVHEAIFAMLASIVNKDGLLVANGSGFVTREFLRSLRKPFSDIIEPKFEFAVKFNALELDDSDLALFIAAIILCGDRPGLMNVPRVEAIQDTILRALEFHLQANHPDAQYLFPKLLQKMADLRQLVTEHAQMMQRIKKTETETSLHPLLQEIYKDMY

[3] = biological target: T2, Glucocorticoid receptor (Homo sapiens) (UniProt P04150); assay: Displacement of fluormone GS1 from human GST-tagged glucocorticoid receptor-LBD at 10 uM by TR-FRET assay
T2 sequence (whole entry): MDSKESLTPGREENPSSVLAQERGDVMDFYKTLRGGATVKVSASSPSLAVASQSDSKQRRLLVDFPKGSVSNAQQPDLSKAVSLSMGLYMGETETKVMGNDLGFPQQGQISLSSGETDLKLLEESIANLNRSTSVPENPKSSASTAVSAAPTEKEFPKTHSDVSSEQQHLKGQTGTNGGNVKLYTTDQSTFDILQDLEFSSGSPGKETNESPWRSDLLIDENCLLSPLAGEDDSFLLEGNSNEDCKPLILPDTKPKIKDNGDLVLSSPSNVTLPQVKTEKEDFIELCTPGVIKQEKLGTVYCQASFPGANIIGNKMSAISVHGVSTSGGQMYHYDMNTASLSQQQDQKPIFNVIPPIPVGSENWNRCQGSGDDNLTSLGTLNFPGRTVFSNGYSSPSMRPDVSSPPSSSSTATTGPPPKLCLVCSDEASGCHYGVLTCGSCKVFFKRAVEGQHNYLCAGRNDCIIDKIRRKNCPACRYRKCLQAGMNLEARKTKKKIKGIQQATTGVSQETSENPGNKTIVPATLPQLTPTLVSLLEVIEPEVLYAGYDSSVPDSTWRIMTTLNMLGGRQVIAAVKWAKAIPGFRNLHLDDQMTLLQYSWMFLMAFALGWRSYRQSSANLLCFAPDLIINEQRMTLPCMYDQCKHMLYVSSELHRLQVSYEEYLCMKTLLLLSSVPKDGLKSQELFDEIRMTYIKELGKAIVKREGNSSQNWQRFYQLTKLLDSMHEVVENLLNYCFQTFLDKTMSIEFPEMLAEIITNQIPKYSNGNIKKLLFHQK

[4] = biological target: T3, Oxysterols receptor LXR-beta (Homo sapiens) (UniProt P55055); assay: Transactivation of LXRbeta (unknown origin) at 10 uM by TR-FRET assay
T3 sequence (whole entry): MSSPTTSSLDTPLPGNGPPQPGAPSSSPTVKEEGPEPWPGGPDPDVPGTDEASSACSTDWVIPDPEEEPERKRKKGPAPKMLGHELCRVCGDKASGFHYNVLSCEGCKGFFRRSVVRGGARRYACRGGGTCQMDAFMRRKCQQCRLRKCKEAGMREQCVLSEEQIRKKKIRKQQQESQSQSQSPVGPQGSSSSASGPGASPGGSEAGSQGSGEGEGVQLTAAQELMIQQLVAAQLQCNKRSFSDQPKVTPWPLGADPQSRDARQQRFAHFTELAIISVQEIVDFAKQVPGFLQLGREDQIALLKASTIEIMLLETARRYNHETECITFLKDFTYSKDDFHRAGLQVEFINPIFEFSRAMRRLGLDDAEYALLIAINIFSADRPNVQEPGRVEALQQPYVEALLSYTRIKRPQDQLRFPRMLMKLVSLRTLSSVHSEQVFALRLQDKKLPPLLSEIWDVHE

[5] = biological target: T4, Peroxisome proliferator-activated receptor gamma (Homo sapiens) (UniProt P37231); assay: Partial agonist activity at PPARgamma in human bone marrow-derived mesenchymal stem cells assessed as inhibition of troglitazone-induced upregulation of adiponectin mRNA level at 3 to 10 uM measured on day 3 in presence of IDX by qRT-PCR analysis
T4 sequence (whole entry): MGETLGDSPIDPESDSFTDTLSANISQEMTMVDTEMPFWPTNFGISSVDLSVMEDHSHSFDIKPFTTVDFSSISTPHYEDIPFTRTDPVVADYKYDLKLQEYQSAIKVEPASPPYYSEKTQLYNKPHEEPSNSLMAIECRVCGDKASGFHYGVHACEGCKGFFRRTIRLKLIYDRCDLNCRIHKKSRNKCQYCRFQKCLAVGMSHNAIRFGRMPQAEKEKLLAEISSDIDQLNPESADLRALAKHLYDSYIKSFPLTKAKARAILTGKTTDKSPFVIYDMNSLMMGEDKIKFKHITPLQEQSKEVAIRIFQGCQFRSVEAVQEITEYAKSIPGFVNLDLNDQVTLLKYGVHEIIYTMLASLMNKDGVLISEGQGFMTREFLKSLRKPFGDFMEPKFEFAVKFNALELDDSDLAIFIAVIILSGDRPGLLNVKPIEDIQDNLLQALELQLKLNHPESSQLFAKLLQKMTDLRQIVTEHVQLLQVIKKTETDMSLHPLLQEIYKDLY

[6] = organism: Homo sapiens; assay: Induction of adipogenesis in human bone marrow-derived mesenchymal stem cells assessed as increase in adiponectin production measured on day 5 in presence of IDX by ELISA; format: functional
[7] = biological target: T4, Peroxisome proliferator-activated receptor gamma (Homo sapiens); assay: Displacement of fluormone Pan-PPAR Green from human GST-tagged PPARgamma-LBD at 10 uM by TR-FRET assay relative to control
[8] = biological target: T5, Oxysterols receptor LXR-alpha (Homo sapiens) (UniProt Q13133); assay: Transactivation of recombinant human GST-tagged LXRalpha-LBD at 10 uM by TR-FRET assay
T5 sequence (whole entry): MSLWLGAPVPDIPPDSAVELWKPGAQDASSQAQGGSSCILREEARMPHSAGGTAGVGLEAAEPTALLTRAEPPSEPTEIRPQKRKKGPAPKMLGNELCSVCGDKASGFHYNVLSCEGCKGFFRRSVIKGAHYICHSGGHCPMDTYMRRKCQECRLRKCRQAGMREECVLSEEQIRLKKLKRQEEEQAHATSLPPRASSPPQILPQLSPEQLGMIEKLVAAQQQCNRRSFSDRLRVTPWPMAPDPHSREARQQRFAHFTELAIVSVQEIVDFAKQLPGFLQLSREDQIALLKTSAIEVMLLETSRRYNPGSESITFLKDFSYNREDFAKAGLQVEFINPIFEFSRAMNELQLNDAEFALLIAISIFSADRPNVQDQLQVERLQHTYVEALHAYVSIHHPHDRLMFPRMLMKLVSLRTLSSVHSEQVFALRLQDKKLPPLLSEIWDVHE

[9] = biological target: T6, Peroxisome proliferator-activated receptor alpha (Homo sapiens) (UniProt Q07869); assay: Displacement of fluormone Pan-PPAR Green from human GST-tagged PPARalpha-LBD at 10 uM by TR-FRET assay
T6 sequence (whole entry): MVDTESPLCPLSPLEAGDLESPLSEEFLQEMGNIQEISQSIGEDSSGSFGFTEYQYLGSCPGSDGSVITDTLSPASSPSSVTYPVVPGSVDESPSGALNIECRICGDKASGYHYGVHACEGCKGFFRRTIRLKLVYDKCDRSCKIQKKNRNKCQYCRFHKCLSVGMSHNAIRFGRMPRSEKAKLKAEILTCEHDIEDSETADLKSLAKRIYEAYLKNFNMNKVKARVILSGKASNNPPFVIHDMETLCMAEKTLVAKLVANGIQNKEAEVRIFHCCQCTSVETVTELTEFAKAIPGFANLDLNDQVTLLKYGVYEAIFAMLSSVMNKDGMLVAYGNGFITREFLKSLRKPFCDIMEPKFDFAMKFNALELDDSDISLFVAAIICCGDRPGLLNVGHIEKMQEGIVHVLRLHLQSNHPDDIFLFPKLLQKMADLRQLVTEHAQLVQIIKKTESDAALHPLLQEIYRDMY

[10] = biological target: T4, Peroxisome proliferator-activated receptor gamma (Homo sapiens); assay: Partial agonist activity at PPARgamma in human bone marrow-derived mesenchymal stem cells assessed as inhibition of troglitazone-induced upregulation of FABP4 mRNA level at 3 to 10 uM measured on day 3 in presence of IDX by qRT-PCR analysis
[11] = organism: Homo sapiens; assay: Induction of adipogenesis in human bone marrow-derived mesenchymal stem cells assessed as increase in lipid droplet accumulation at 30 uM measured on day 5 in presence of IDX by ORO staining based spectrophotometric analysis; format: functional
[12] = biological target: T4, Peroxisome proliferator-activated receptor gamma (Homo sapiens); assay: Partial agonist activity at PPARgamma in human bone marrow-derived mesenchymal stem cells assessed as inhibition of troglitazone-induced increase in adiponectin level at 3 to 10 uM measured on day 5 in presence of IDX by ELISA
[13] = biological target: T4, Peroxisome proliferator-activated receptor gamma (Homo sapiens); assay: Partial agonist activity at PPARgamma in human bone marrow-derived mesenchymal stem cells assessed as inhibition of troglitazone-induced upregulation of PPARgamma mRNA level at 3 to 10 uM measured on day 3 in presence of IDX by qRT-PCR analysis
[14] = biological target: T7, Peroxisome proliferator-activated receptor gamma (Homo sapiens, UniProt P37231); assay: Displacement of fluormone Pan-PPAR Green from human GST-tagged PPARgamma-LBD by TR-FRET assay
T7 sequence (P37231 whole entry): T4 sequence (whole entry)

[15] = organism: Homo sapiens; assay: Induction of adipogenesis in human bone marrow-derived mesenchymal stem cells assessed as increase in adiponectin production at 10 uM measured on day 5 in presence of IDX by ELISA; format: functional
[16] = organism: Homo sapiens; assay: Induction of adipogenesis in human bone marrow-derived mesenchymal stem cells assessed as increase in adiponectin production at 60 uM measured on day 5 in presence of IDX by ELISA; format: functional
[17] = biological target: T3, Oxysterols receptor LXR-beta (Homo sapiens); assay: Transactivation of LXRbeta (unknown origin) at 30 uM by TR-FRET assay
[18] = biological target: T4, Peroxisome proliferator-activated receptor gamma (Homo sapiens); assay: Displacement of fluormone Pan-PPAR Green from human GST-tagged PPARgamma-LBD at 30 uM by TR-FRET assay relative to control
[19] = biological target: T6, Peroxisome proliferator-activated receptor alpha (Homo sapiens); assay: Displacement of fluormone Pan-PPAR Green from human GST-tagged PPARalpha-LBD at 30 uM by TR-FRET assay
[20] = biological target: T5, Oxysterols receptor LXR-alpha (Homo sapiens); assay: Transactivation of recombinant human GST-tagged LXRalpha-LBD at 30 uM by TR-FRET assay
[21] = biological target: T2, Glucocorticoid receptor (Homo sapiens); assay: Displacement of fluormone GS1 from human GST-tagged glucocorticoid receptor-LBD at 30 uM by TR-FRET assay
[22] = biological target: T1, Peroxisome proliferator-activated receptor delta (Homo sapiens); assay: Displacement of fluormone Pan-PPAR Green from human GST-tagged PPARdelta-LBD at 30 uM by TR-FRET assay
[23] = organism: Homo sapiens; assay: Induction of adipogenesis in human bone marrow-derived mesenchymal stem cells assessed as increase in adiponectin production at 100 uM measured on day 5 in presence of IDX by ELISA; format: functional

Structure (SMILES): Cc1c(C)c2c(c(C)c1O)CCC(C)(COc1ccc(CC3SC(=O)NC3=O)cc1)O2 (stereo not drawn)
- Activity [1]: Active

- Activity [2]: inactive
- Activity [3]: inactive
- Activity [4]: inactive
- inhibition [5]: Active
- Activity [7]: 58%
- Activity [8]: inactive
- Activity [9]: inactive
- inhibition [10]: Active
- inhibition [12]: Active
- inhibition [13]: Active
- Ki [14]: 7.1 µM
Structure (SMILES): O=CN1CCc2c([nH]c3ccccc23)C1c1cccc2cccnc12 (stereo not drawn)
- Activity [6]: Dose-dependent effect
- Activity [11]: Active

Structure (SMILES): COc1ccc(Cl)cc1C(=O)NCCc1ccc(S(=O)(=O)NC(=O)NC2CCCCC2)cc1
- Activity [15]: Active

- Activity [17]: inactive
- Activity [18]: 24 to 36%
- Activity [19]: inactive
- Activity [20]: inactive
- Activity [21]: inactive
- Activity [22]: inactive
Structure (SMILES): c1cnc2c(C3NCCc4c3[nH]c3ccccc43)cccc2c1 (stereo not drawn)
- Activity [16]: Active

Structure (SMILES): CC(=O)Oc1ccccc1C(=O)O
- Activity [23]: Active
